Test results as given in the supplement of paper PMC4862054.

How the values were obtained:
Settings in all cases: incubation time: 72 h
MDA-MB-231 [1] = assay: drug sensitivity score (DSS), CellTiter-Blue viability (DSS (AUC-based score)); higher = stronger viability inhibition; extreme values may be limits of the assay
Summary of the method: (§1)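 Into 384-well plates carrying compound in a 5- or 9-concentration series went 20 µl of breast cancer cell suspension, followed by 72 h of incubation. Adding 2.5 µl CellTiter-Blue per well and incubating 2 h at 37 °C preceded fluorescence measurement at 560/590 nm. After normalisation of each plate to 0.1 % DMSO and a positive kill control, dose-response curves were fitted and the area beneath them taken as the drug sensitivity score.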

MDA-MB-468 [2] = assay: as above
Summary of the method: as §1

BT-474 [3] = assay: as above
Summary of the method: as §1

SK-BR-3 [4] = assay: as above
Summary of the method: as §1

HCC1143 = assay: normalised viability (% of control), CellTiter-Blue; higher = more viable cells (about 100 = DMSO control)
Summary of the method: (§2)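 The reported quantity is normalised viability at a single listed concentration of the series. Compound in 5 µl medium was pre-dispensed into 384-well plates and 20 µl of breast cancer cell suspension was added for 72 h. A 2 h, 37 °C CellTiter-Blue step (2.5 µl) preceded fluorescence reading at 560/590 nm, and plates were normalised to vehicle (100) and a positive kill control (0).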

HCC1937 = assay: as above
Summary of the method: as §2

MDA-MB-231 [5] = assay: as above
Summary of the method: as §2

CAL-85-1 = assay: as above
Summary of the method: as §2

MFM-223 = assay: as above
Summary of the method: as §2

DU-4475 = assay: as above
Summary of the method: as §2

HCC1599 = assay: as above
Summary of the method: as §2

BT-549 = assay: as above
Summary of the method: as §2

MDA-MB-436 = assay: as above
Summary of the method: as §2

HDQ-P1 = assay: as above
Summary of the method: as §2

CAL-51 = assay: as above
Summary of the method: as §2

MDA-MB-468 [6] = assay: as above
Summary of the method: as §2

BT-474 [7] = assay: as above
Summary of the method: as §2

CAL-148 = assay: as above
Summary of the method: as §2

SK-BR-3 [8] = assay: as above
Summary of the method: as §2

Hs578T = assay: as above
Summary of the method: as §2

CAL-120 = assay: as above
Summary of the method: as §2

MDA-MB-453 = assay: as above
Summary of the method: as §2

C#Cc1cccc(Nc2ncnc3cc(OCCOC)c(OCCOC)cc23)c1 [Erlotinib]
Settings	drug sensitivity score
BT-474 [3]	4.23
MDA-MB-231 [1]	0
MDA-MB-468 [2]	5.57
SK-BR-3 [4]	3.78

normalised viability [%]
Settings	3 nM	10 nM	30 nM	100 nM	1000 nM	10000 nM
BT-474 [7]	–	98.5	–	–	90.1	51
BT-549	–	117	–	–	106	66.9
CAL-51	102	–	96.1	98.8	–	–
CAL-85-1	93.7	–	82.8	88	–	–
CAL-120	–	91.4	–	–	95.1	50.1
CAL-148	89.7	–	102	98.2	–	–
DU-4475	107	–	90.7	86.7	–	–
HCC1143	–	105	–	–	90.7	68.8
HCC1599	–	91	–	–	74.5	54.8
HCC1937	–	95	–	–	80.2	63.6
HDQ-P1	108	–	94	85	–	–
Hs578T	–	123	–	–	120	69
MDA-MB-231 [5]	–	95	–	–	120	95.5
MDA-MB-436	–	108	–	–	83.9	74
MDA-MB-453	109	–	99.2	98	–	–
MDA-MB-468 [6]	–	108	–	–	75.2	43.6
MFM-223	–	97.3	–	–	91.5	54.1
SK-BR-3 [8]	–	91	–	–	91.2	27.6

CCC1=C[C@@H]2CN(C1)Cc1c([nH]c3ccccc13)[C@@](C(=O)OC)(c1cc3c(cc1OC)N(C)[C@H]1[C@@](O)(C(=O)OC)[C@H](OC(C)=O)[C@]4(CC)C=CCN5CC[C@]31[C@@H]54)C2 [Vinorelbine]
Settings	drug sensitivity score
BT-474 [3]	16.1
MDA-MB-231 [1]	22.8
MDA-MB-468 [2]	18.2
SK-BR-3 [4]	26

normalised viability [%]
Settings	3 nM	10 nM	30 nM	100 nM	1000 nM	10000 nM
BT-474 [7]	–	108	–	–	44.4	58.1
BT-549	–	94.9	–	–	15.8	11.4
CAL-51	110	–	91.7	58.1	–	–
CAL-85-1	94.2	–	60.3	34.5	–	–
CAL-120	–	84.1	–	–	24.3	25.4
CAL-148	106	–	91.4	18.7	–	–
DU-4475	96.7	–	91.3	79.4	–	–
HCC1143	–	93.9	–	–	45.8	38.7
HCC1599	–	84.2	–	–	44.4	53.5
HCC1937	–	83.2	–	–	14.7	19.5
HDQ-P1	95.3	–	81.2	65	–	–
Hs578T	–	93.7	–	–	16.1	15.9
MDA-MB-231 [5]	–	109	–	–	16.7	12.7
MDA-MB-436	–	109	–	–	41.4	34.6
MDA-MB-453	110	–	43	25.1	–	–
MDA-MB-468 [6]	–	104	–	–	53.6	33.8
MFM-223	–	95.5	–	–	44	29.1
SK-BR-3 [8]	–	99.4	–	–	17.7	18.3
